According to patent EP4813985A1, “PREPARATION OF QUINAZOLINONE DERIVATIVE AS KINASE INHIBITOR, AND USE THEREOF” (Xizang Haisco Pharmaceutical Co., Ltd., priority 2023, dated 2025):
pIC50: −log10 of the molar value. Like-named read-outs stand apart in the source and are kept apart here.

Columns and labels:
[1] = Pharmacokinetic test in mice; assay type: in vivo, ICR mice; settings: i.g. (10 mg/kg), relative to Control compound 1
[2] = Pharmacokinetic test in mice; assay type: in vivo, ICR mice; settings: mouse, plasma; for Vd: read-out: Vdss
Procedure: 3.1 Experimental animals: Male ICR mice, 20-25 g, 6 mice/compound, purchased from Chengdu Dossy Experimental Animals Co., Ltd.
3.2 Experimental design: On the day of the experiment, the ICR mice were randomly grouped according to their body weights. The animals were fasted with water available for 12-14 h one day before the administration, and were fed 4 h after the administration. Table 3.1 Administration information
vehicle for intravenous administration: 5% DMA + 5% Solutol + 90% Saline; vehicle for intragastric administration: 0.5% MC
Before and after administration, 0.06 mL of blood was taken from the orbit under isoflurane anaesthesia and placed in an EDTAK2 centrifuge tube. The tube was centrifuged at 5000 rpm at 4°C for 10 min, and plasma was collected. The blood sampling time points for both the intravenous administration group and intragastric administration group were 0 min, 5 min, 15 min, 30 min, 1 h, 2 h, 4 h, 7 h, 24 h, and 48 h. Before analysis and detection, all samples were stored at -80°C, and the samples were quantitatively analysed by LC-MS/MS. Table 3.2 Pharmacokinetic parameters of test compounds in plasma of mice

[3] = tested on: A375 cells; assay: A375 cell proliferation inhibition test; assay type: cell-based; settings: Homo sapiens, A-375, 72 h; for IC50: Inhibitory activities of compounds on A375 cells, read-out: IC50/nM; for pIC50: A375 cells, values in text, read-out: IC50
Procedure: A375 cells (ATCC, CRL-1619) were cultured in DMEM complete medium (+10% FBS) in a CO2 incubator at 37°C for 48 h. The cells were trypsinised and counted, and then the density was adjusted to 1.67 × 10^4 cells/mL. 90 µL (1500 cells) of cells were inoculated into each well of a 96-well transparent bottom plate, and the plate was transferred to a CO2 incubator and the cells were cultured at 37°C overnight. After the cells were incubated overnight, 10 µL of the diluted compound (final concentration starting from 10 µM, 3-fold dilution, 11 concentrations) was added to each well using a multi-channel pipette. The […] control was a serum-free medium containing DMSO. After mixing evenly, the cells were placed in a CO2 incubator at 37°C for 72 h. After the incubation, the CellCounting-Lite®2.0 kit detection solution (Vazyme, DD1101-03) was taken out and returned to room temperature. 100 µL of CellCounting-Lite2.0 detection solution was added to each well, the plate was sealed with a sealing film, and the plate was placed on a shaker for shaking for 15 min (the whole process should be kept away from light). The Luminescence module of the microplate reader (BMG LRBTECH) was used to detect the fluorescence signal value LUM of each well. The formula Inhibition rate% = ((LUM Solvent−LUM Compound)/(LUM Solvent))∗100% [formula] was used to calculate the inhibition rate of the compound. The Graphpad software log(inhibitor) vs. response -- Variable slope (four parameters) equation was used to perform fitting analysis and calculate the IC50value of the sample. The ordinate of the data is the percentage of inhibition rate, and the abscissa is the logarithm of the sample concentration (Log10).

[4] = molecular target: T1, BRAFV600E (Homo sapiens, UniProt P15056, V600E); assay: BRAFV600E enzyme activity test (ADP-Glo, MEK1K97R substrate); assay type: biochemical; settings: Inhibitory activities of compounds on BRAFV600E
T1 construct: purchased ABCAM ab204154
T1 sequence (P15056 416-766 V600E limits assumed): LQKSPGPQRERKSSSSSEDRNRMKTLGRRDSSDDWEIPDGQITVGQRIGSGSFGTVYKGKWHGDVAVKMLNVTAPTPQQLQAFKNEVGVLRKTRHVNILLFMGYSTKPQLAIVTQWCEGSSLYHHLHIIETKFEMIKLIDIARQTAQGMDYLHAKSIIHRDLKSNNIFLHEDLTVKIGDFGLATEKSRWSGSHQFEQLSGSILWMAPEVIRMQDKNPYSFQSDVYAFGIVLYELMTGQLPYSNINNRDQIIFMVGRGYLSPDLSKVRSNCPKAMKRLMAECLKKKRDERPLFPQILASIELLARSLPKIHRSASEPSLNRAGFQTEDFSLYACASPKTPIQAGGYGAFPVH
Procedure: BRAFV600E (ABCAM, ab204154) and MEK1K97R (USBio, M2865-06J) proteins were diluted at an appropriate dilution factor using 1×Assay buffer (PH = 7.4 Tris-HCl buffer, supplemented with 10 mM MgCl2) such that the final concentration of BRAFV600E was 10 ng/µL and the final concentration of substrate MEK1K97R was 1 µM. 1 µL of BRAFV600E, 1 µL of compound serial dilution (final concentration starting from 2 µM, 5-fold dilution, 8 concentrations), and 6 µL of Assay buffer were pipetted to a 384-well reaction plate with a capacity of 20 µL. The plate was pre-incubated in a constant temperature incubator at 37°C for 30 min. 1 µL of 200 µM ATP and 1 µM MEK1 K97R were added to the reaction wells corresponding to the compound incubation, and mixed evenly by shaking, and preincubation was performed in a constant temperature incubator at 37°C for 60 min for enzymatic reaction. After the reaction was completed, 5 µL of the above reaction product was pipetted to another 384-well plate, and 5 µL of formulated ADP-Glo™ Reagent (Promega, V9101) was added and mixed evenly by pipetting, and then the plate was placed at room temperature for 40 min. 10 µL Kinase Detection Reagent was added to the 384-well plate and incubated at room temperature for 40 min. Finally, a microplate reader (BMG LRBTECH) was used and Luminescence module was selected to detect the LUM fluorescence value of each well (the gain value was fixed at 3600), and the formula Inhibition rate% = (1−(LUM Compound−LUM Background)/(LUM Solvent−LUM Background))∗100% [formula] was used to calculate the inhibition rate of the compound on BRAFV600E. The Graphpad software log(inhibitor) vs. response -- Variable slope (four parameters) equation was used to perform fitting analysis and calculate the IC50value of the sample.

Row | Compound | IC50 [3] | Fold change in brain-blood ratio relative to control compound [1] | AUC(0-t) ([2]; iv, i.v. (2.5 mg/kg)) | clearance ([2]; iv, i.v. (2.5 mg/kg)) | half-life ([2]; iv, i.v. (2.5 mg/kg)) | Vd ([2]; iv, i.v. (2.5 mg/kg)) | bioavailability ([2]; po, i.g. (10 mg/kg)) | AUC(0-t) ([2]; po, i.g. (10 mg/kg)) | half-life ([2]; po, i.g. (10 mg/kg)) | other results
1 | N#Cc1c(NS(=O)(=O)N2CC(=CF)C2)ccc(F)c1Oc1ccc2ncn(CC(F)F)c(=O)c2c1 [Compound 11] | ≤ 10 nM | 6.1 | 245 µg·h/mL | 0.163 mL/min/kg | 11.1 h | 0.123 L/kg | 98.1% | 962 µg·h/mL | 8.81 h | 
2 | CC=C1CN(S(=O)(=O)Nc2ccc(F)c(Oc3ccc4ncn(CCF)c(=O)c4c3)c2C#N)C1 [Compound 14] | ≤ 10 nM | 3.5 | 268 µg·h/mL | 0.154 mL/min/kg | 9.27 h | 0.098 L/kg | 85.1% | 912 µg·h/mL | 9 h | IC50 [4]: ≤ 10 nM; pIC50 [3]: 8.84
3 | CC(F)=C1CN(S(=O)(=O)Nc2ccc(F)c(Oc3ccc4ncn(CC(F)F)c(=O)c4c3)c2C#N)C1 [Compound 24] | ≤ 10 nM | 8.1 | 91.8 µg·h/mL | 0.462 mL/min/kg | 8.1 h | 0.237 L/kg | > 98% | 492 µg·h/mL | 9.83 h | IC50 [4]: ≤ 10 nM; pIC50 [3]: 8.67
4 | N#Cc1c(NS(=O)(=O)N2CC(=CC(F)(F)F)C2)ccc(F)c1Oc1ccc2ncn(CC(F)F)c(=O)c2c1 [Compound 25] | 10 to 50 nM |  |  |  |  |  |  |  |  | 

Second part, led by results:

Row | IC50 [3] | Compound | Fold change in brain-blood ratio relative to control compound [1] | AUC(0-t) ([2]; iv, i.v. (2.5 mg/kg)) | clearance ([2]; iv, i.v. (2.5 mg/kg)) | half-life ([2]; iv, i.v. (2.5 mg/kg)) | Vd ([2]; iv, i.v. (2.5 mg/kg)) | bioavailability ([2]; po, i.g. (10 mg/kg)) | AUC(0-t) ([2]; po, i.g. (10 mg/kg)) | half-life ([2]; po, i.g. (10 mg/kg)) | other results
5 | 10 to 50 nM | CN(C1CC(=C(F)F)C1)S(=O)(=O)Nc1ccc(F)c(Oc2ccc3ncn(CC(F)F)c(=O)c3c2)c1C#N (centres unmarked) [Compound 12] |  |  |  |  |  |  |  |  | 
6 | ≤ 10 nM | C=C1CN(S(=O)(=O)Nc2ccc(F)c(Oc3ccc4ncn(CC(F)F)c(=O)c4c3)c2C#N)CC1F (centres unmarked) [Compound 21] |  |  |  |  |  |  |  |  | 
7 | 10 to 50 nM | CC=C1CN(S(=O)(=O)Nc2ccc(F)c(Oc3ccc4c(c3)C3=NCCN3C=N4)c2C#N)C1 [Compound 22] |  |  |  |  |  |  |  |  | 
8 | ≤ 10 nM | C=C1CN(S(=O)(=O)Nc2ccc(F)c(Oc3ccc4ncc(N5CCOCC5)nc4c3)c2C#N)C1 [Compound 23] |  |  |  |  |  |  |  |  | 
9 | 10 to 50 nM | N#Cc1c(NS(=O)(=O)N2CC(=CC(F)F)C2)ccc(F)c1Oc1ccc2ncn(CC(F)F)c(=O)c2c1 [Compound 26] |  |  |  |  |  |  |  |  | 
10 | ≤ 10 nM | CC=C1CN(S(=O)(=O)Nc2ccc(F)c(Oc3ccc4ncn(C)c(=O)c4c3)c2C#N)C1 [Compound 27] |  |  |  |  |  |  |  |  | 
